Experimental data from PMC12904088, “Development of Dimethylsulfonium Probes for Broad Profiling of Methyllysine Reader Proteins” (Advanced Science, 2025).
Square brackets hold non-standard residues; d marks the D form. Ends that are not written are not given here. Lys(Me3) = C[N+](C)(C)CCCC[C@H](N)C(=O)O

Legend:
PRC2 = conditions: cited from earlier work
Text: (§1) Reader proteins, which specifically recognize methylation modifications at specific sites, are crucial for the biological functions of lysine methylation (Figure 1A).^[ [11], [12], [13], [14] ^] For example, BPTF is a reader of H3K4me3 that is in the NURF complex for RNA polymerase II activities.^[ [15] ^] CBX1 is a reader of H3K9me3 that promotes liquid‐liquid phase separation for the formation of heterochromatin. As a result, the local genes in chromatin are condensed and not accessible to transcription.^[ [16], [17], [18] ^] In addition, readers also play important roles in tumorigenesis. F ...

tumor growth = conditions: mouse models; cited from earlier work
Text: as §1

[1] = system: broad panel of other epigenetic readers and writers; conditions: cited from earlier work
Text: (§2) To verify this approach, we selected MS31, a potent and selective fragment‐like inhibitor that primarily targets the H3K4me3 reader SPIN1 by binding to its Tudor2 domain.^[ [64], [65], [66] ^] […] We used peptide 12, which replaced desthiobiotin of peptide 5 with biotin to enhance binding affinity to streptavidin beads, for a prot ...

SPIN2B [2] = conditions: cited from earlier work
Text: as §2

SPIN1 = conditions: cited from earlier work
Text: as §2

SPIN4 = conditions: cited from earlier work
Text: as §2

[3] = system: HeLa cell nuclei proteins; assay: Proteomic experiment for inhibitor evaluation: probe 12 with MS31 competition; type: cell-based, Homo sapiens
Procedure: HeLa cells (1.8 × 10^7) were harvested, washed with pre‐cooled phosphate buffer saline (PBS), and lysed in hypotonic buffer (10 mM Tris, 15 mM NaCl, 1.5 mM MgCl2, 0.2 mM PMSF, pH 7.5) on ice with regular inversion for 10–15 min. After centrifugation at 200 g for 5 min at 4°C, the pellet was resuspended in hypotonic buffer and homogenized with three strokes of a loose pestle Dounce homogenizer. The intact nuclei were washed with a hypotonic buffer and collected by centrifugation. Then, the nuclei were resuspended in crosslink buffer (100 mM HEPES, 150 mM KCl, 1.5 mM MgCl2, 0.2 mM PMSF, pH 7.5) and divided into two groups (Group A and Group B), each of which contained three parallel samples. The general probe was added to Group A. The same amount of the general probe and extra competing peptides was added to Group B. These samples were transferred to a 24‐well plate, incubated on ice for 10 min, and irradiated under 313 nm UV for 20 min on ice. Next, the nuclei were washed with crosslinking buffer three times. […]
Label‐free quantification was performed with Proteome Discoverer 2.5, which was used for database searches against the Homo sapiens (Human) proteome database retrieved from UniProtKB (accession UP000005640). […]

SPIN2B [4] = assay: Western blot: inhibition of crosslinking of probe 12 by MS31; type: biochemical, human; conditions: 2.5 mM probe 12, 10 µM SPIN2B, 200 µM MS31, 0.5% DMSO, UV 30 min, streptavidin-HRP blot; Figure 5D
Procedure: BPTF, CBX1, and SPIN1 were expressed and purified as previously reported.^[ [54], [59] ^] Full‐length SPIN2B (residues 1–258) from human was cloned into the pET‐28a vector with an N‐terminal 6×His‐SUMO‐tag. It was over‐expressed in Rosetta (DE3) Escherichia coli cells by induction of 0.25 mM isopropyl β‐D‐thiogalactoside (IPTG) at 16 °C overnight when OD600 reached 0.6–0.8 in the LB medium. The harvested cells were suspended in lysis buffer (20 mM Tris, 150 mM NaCl, 0.2 mM PMSF, pH 7.5) and lysed by sonication; then, the cell lysate was centrifuged to remove the insoluble cell debris. The clarified supernatant was loaded on nickel resin equilibrated in lysis buffer. Afterward, the protein‐bound resin was washed sequentially with lysis buffer, high salt buffer (20 mM Tris, 500 mM NaCl, pH 7.5), and 20 mM imidazole buffer (20 mM Tris, 150 mM NaCl, 20 mM imidazole, pH 7.5). The target proteins were eluted by 200 mM imidazole buffer (20 mM Tris, 150 mM NaCl, 200 mM imidazole, pH 7.5), followed by the solution exchanged to storage buffer (20 mM Tris, 150 mM NaCl, pH 7.5). The product was concentrated, snap‐frozen, and stored at −80°C. […]
For SPIN1 and SPIN2B found in the volcano plot, 5 sets of samples were designed, respectively. […] Finally, the membranes were washed with 1×TBST buffer three times, and the protein bands were detected by enhanced chemiluminescence reagent.

[5] = system: reader proteins (BPTF, CBX1); assay: In vitro crosslinking validation of general competition peptide; type: biochemical; conditions: 2.5 mM general probe, 7.5 mM peptide 13, 10 µM reader, pH 7.5, UV 30 min; Figure 6B
Procedure: Probes were added to the crosslinking buffer (100 mM HEPES, pH 7.5), followed by the addition of reader proteins. The mixture was transferred to 96‐well plates and incubated on ice for 10 min. After UV irradiation on ice at an energy of 720 mJ cm^−2, the samples were analyzed by UPLC‐Q‐TOF‐MS. The analytical yield was calculated based on the mass peak areas as previously reported.^[ [55] ^] The yield is calculated as the peak area of the desired product divided by the sum of the peak areas of the crosslinking products and the starting material, multiplied by 100%. For crosslinking readers with general probes: The mixture of 5 mM general probes and 10 µM reader proteins (BPTF, CBX1, CDYL2) was crosslinked by the General procedure for crosslinking for 30 min. For competition assays, the mixture of 2.5 mM general probes, 100 µM H3K4me3 (1‐15) or H3K9me3 (1‐15) peptide or 7.5 mM […]me3GG, 10 µM reader proteins (BPTF, CBX1) was crosslinked by the General procedure for crosslinking for 20 min (H3K4me3 or H3K9me3 for competition) or 30 min ([…]me3GG for competition). For Kinetics of reader crosslinking: The mixture of 0.625/1.25/2.5/5/10 mM general probe and 10 µM reader proteins was crosslinked by the General procedure for crosslinking for 20 min. […]

CS(=O)(=O)c1ccc(-c2cnc(NCc3ccco3)n3cnnc23)cc1 [EED226]
PRC2 activity inhibition (in words) (PRC2): effectively inhibits PRC2 activity
Tumor growth suppression (in words) (tumor growth): suppresses tumor growth in mouse models

COc1c(CN)cc(CN)cc1OCCCN1Cc2ccccc2C1 [MS31]
Selectivity (in words) [1]: high selectivity over a broad panel of other epigenetic readers and writers
Binding affinity (in words) (SPIN2B [2]): moderate binding affinity
Kd (SPIN1): 91 nM
Binding affinity (in words) (SPIN4): moderate binding affinity
Proteins significantly enriched (MS31 competition) ([3]; 2.5 mM probe 12 vs + 200 µM MS31, 313 nm UV 20 min, Log2(Fold Change) ≥0.5, p ≤ 0.05, n = 3): 21 proteins
Known MS31 targets identified among enriched proteins ([3]; 2.5 mM probe 12 vs + 200 µM MS31, Log2(Fold Change) ≥0.5, p ≤ 0.05, n = 3): the expected primary target SPIN1 was identified, along with two other SPIN family members, SPIN4 and SPIN2B
Inhibition of crosslinking between SPIN2B and probe 12 (SPIN2B [4]): can be inhibited by MS31

RKGGGGGG[Lys(Me3)]GG [peptide 13]
Competition of general probe crosslinking by peptide 13 [5]: three equivalents of the peptide were sufficient to achieve complete competition
